In patent publication US4198506A, “2-Carboxyalkyl-2,3-dihydro-6-mercapto-s-triazolo[4,3-b]-pyridazin-3-ones” (Bristol-Myers Company, priority 1979, dated 1980):
Values after ≈ are worked out from the molar mass of the structure shown. Values joined by “and” are separate entries in the source; they are usually repeats but may differ in a detail not shown here. Equal values may be shown once. Read-outs that look alike come from different tables or passages of the source.

Columns and labels:
[1] = tested on: Enterobacter (Cephalosporinase +); assay: In vitro activity (geometric mean MIC, serial dilution); assay type: cell-based; conditions: 7 strains, Mueller-Hinton agar, inoculum 10^4 dilution, MIC cutoff 200 mcg./ml.
Proteus (indole-) = assay: as above; assay type: cell-based; conditions: read-out: Geometric Mean MIC
E. coli (sensitive) = assay: as above; assay type: cell-based; conditions: Escherichia coli, read-out: Geometric Mean MIC
[2] = tested on: Proteus (indole +, cephalosporinase +); assay: as above; assay type: cell-based; conditions: 5 strains; Mueller-Hinton agar, inoculum 10^4 dilution; MIC cutoff 200 mcg./ml.; read-out: Geometric Mean MIC
Proteus (indole +) = assay: as above; assay type: cell-based; conditions: read-out: Geometric Mean MIC
S. marcescens = assay: as above; assay type: cell-based; conditions: Serratia marcescens; 16 strains; Mueller-Hinton agar, inoculum 10^4 dilution; MIC cutoff 200 mcg./ml.; read-out: Geometric Mean MIC
[3] = tested on: S. aureus penicillinase+); assay: as above; assay type: cell-based; conditions: Staphylococcus aureus, read-out: Geometric Mean MIC
[4] = tested on: S. aureus (Methicillin-R); assay: as above; assay type: cell-based; conditions: Staphylococcus aureus; 15 strains; Mueller-Hinton agar, inoculum 10^4 dilution; MIC cutoff 200 mcg./ml.
Enterobacter (sensitive) = assay: as above; assay type: cell-based; conditions: 3 strains, Mueller-Hinton agar, inoculum 10^4 dilution, MIC cutoff 200 mcg./ml., read-out: Geometric Mean MIC
rabbits = assay: Preliminary nephrotoxicity study; assay type: in vivo; conditions: two rabbits, 100 mg./kg. intravenously
Method: A preliminary nephrotoxicity study was carried out by administration of the test compound to a group of two rabbits at 100 mg./kg. intravenously.

Providencia sp. = assay: In vitro activity (geometric mean MIC, serial dilution); assay type: cell-based; conditions: 5 strains, Mueller-Hinton agar, inoculum 10^4 dilution, MIC cutoff 200 mcg./ml., read-out: Geometric Mean MIC
[5] = tested on: Miscellaneous (Salmonella, Shigella, Citrobacter); assay: microbe, parasite or virus in culture; conditions: read-out: Geometric Mean MIC
S. pyogenes = assay: In vitro activity (geometric mean MIC, serial dilution); assay type: cell-based; conditions: Streptococcus pyogenes; 10 strains; Mueller-Hinton agar, inoculum 10^4 dilution; MIC cutoff 200 mcg./ml.
D. pneumoniae = assay: as above; assay type: cell-based; conditions: Streptococcus pneumoniae; 9 strains; Mueller-Hinton agar, inoculum 10^4 dilution; MIC cutoff 200 mcg./ml.
S. aureus Smith = assay: In vivo activity (Mice, sc); conditions: several determinations listed; for ED50: Staphylococcus aureus, read-out: PD50
Excerpt: (§1) |In vivo Activity of BB-[…] and Related Compounds (Mice, sc) | (PD50 (mgm./kg.)

E. coli Juhl = assay: In vivo activity (Mice, sc); conditions: several determinations listed; for ED50: Escherichia coli, read-out: PD50
Excerpt: as §1

S. aureus (sensitive) = assay: In vitro activity (geometric mean MIC, serial dilution); assay type: cell-based; conditions: Staphylococcus aureus, read-out: Geometric Mean MIC
Klebsiella sp. = assay: as above; assay type: cell-based; conditions: read-out: Geometric Mean MIC
[6] = tested on: E. coli (Penicillinase +); assay: as above; assay type: cell-based; conditions: Escherichia coli; 7 strains; Mueller-Hinton agar, inoculum 10^4 dilution; MIC cutoff 200 mcg./ml.; read-out: Geometric Mean MIC
[7] = tested on: 51 gram-positive and 96 gram-negative bacteria; assay: In vitro activity against 147 test organisms (overall comparison); assay type: cell-based; conditions: compared with BB-S483 and BB-S469, respectively
Method: The MIC's were determined by the serial dilution method using Mueller-Hinton agar against 51 gram-positive and 96 gram-negative bacteria. The 147 test organisms were classified into 16 groups according to the genera and the types of antibiotic resistance, 5 groups for gram-positive and 11 for gram-negative bacteria.

Structure (SMILES)	MIC [1]	MIC [2]	MIC (Proteus (indole +))	MIC (S. marcescens)	MIC [3]	MIC [4]	MIC (Enterobacter (sensitive))	MIC (Providencia sp.)	MIC [5]	MIC (S. pyogenes)	MIC (D. pneumoniae)	ED50 (S. aureus Smith)	ED50 (E. coli Juhl)	MIC (S. aureus (sensitive))	MIC [6]	also measured
NCc1ccccc1CC(=O)N[C@@H]1C(=O)N2C(C(=O)O)=C(CSc3ccc4nn(CC(=O)O)c(=O)n4n3)CS[C@H]12 [BB-S469]	4.7 µg/mL (≈ 8.03 µM)	11 µg/mL (≈ 18.8 µM)	0.5 µg/mL (≈ 0.854 µM)	130 µg/mL (≈ 222 µM)	1.2 µg/mL (≈ 2.05 µM)	30 µg/mL (≈ 51.2 µM)	1 µg/mL (≈ 1.71 µM)	4.2 µg/mL (≈ 7.17 µM)	0.7 µg/mL (≈ 1.2 µM)	0.05 µg/mL (≈ 0.0854 µM)	0.03 µg/mL (≈ 0.0512 µM)	0.19 mg/kg	0.19 mg/kg	0.4 µg/mL (≈ 0.683 µM)	11 µg/mL (≈ 18.8 µM)	MIC (Proteus (indole-); 6 strains, Mueller-Hinton agar, inoculum 10^4 dilution, MIC cutoff 200 mcg./ml.): 0.6 µg/mL (≈ 1.02 µM); MIC (E. coli (sensitive)): 0.3 µg/mL (≈ 0.512 µM); nephrotoxic potential (rabbits): little nephrotoxic potential; PD50 (S. aureus Smith): 0.16 mgm./kg. and 0.29 mgm./kg. and 0.2 mgm./kg.; PD50 (E. coli Juhl): 0.24 mgm./kg. and 0.15 mgm./kg.; MIC (Klebsiella sp.): 0.9 µg/mL (≈ 1.54 µM)
CNCc1ccsc1CC(=O)N[C@@H]1C(=O)N2C(C(=O)O)=C(CSc3ccc4nn(CC(=O)O)c(=O)n4n3)CS[C@H]12 [BB-S472, 7-(3-Methylaminomethyl-2-thienylacetamido)-3-(2-carboxymethyl-2,3-dihydro-s-triazolo[4,3-b]pyridazin-3-on-6-ylthiomethyl)-3-cephem-4-carboxylic Acid]	3.2 µg/mL (≈ 5.28 µM)	8.3 µg/mL (≈ 13.7 µM)	0.3 µg/mL (≈ 0.495 µM)	200 µg/mL (≈ 330 µM)	0.9 µg/mL (≈ 1.49 µM)	58 µg/mL (≈ 95.8 µM)	1.3 µg/mL (≈ 2.15 µM)	4.8 µg/mL (≈ 7.92 µM)	0.4 µg/mL (≈ 0.66 µM)	0.05 µg/mL (≈ 0.0826 µM)	0.05 µg/mL (≈ 0.0826 µM)	0.12 mg/kg	0.19 mg/kg	0.4 µg/mL (≈ 0.66 µM)	15 µg/mL (≈ 24.8 µM)	MIC (Proteus (indole-)): 0.3 µg/mL (≈ 0.495 µM); MIC (E. coli (sensitive); 13 strains, Mueller-Hinton agar, inoculum 10^4 dilution, MIC cutoff 200 mcg./ml.): 0.2 µg/mL (≈ 0.33 µM); overall in vitro activity vs. non-N-methylated analogs [7]: better overall activity than their non-N-methylated analogs; MIC (Klebsiella sp.; 12 strains, Mueller-Hinton agar, inoculum 10^4 dilution, MIC cutoff 200 mcg./ml.): 0.8 µg/mL (≈ 1.32 µM)
